Data on 10 compounds can be found in ChEMBL document CHEMBL1201862, “PubChem BioAssay data set” (2004).

Each structure is given as a SMILES string.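 Where inhibition never reached the appropriate level, the endpoint shown equals the highest concentration tested. Otherwise, values were interpolated linearly from a five-concentration, 48-hour dose response in 96-well plates. Here, GI50 denotes the concentration required for 50% inhibition of growth.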 Activity calls are given as the source filed them. No stated cut-off is given here; in the data, active = GI50 up to about 1.1 µM and inactive = higher.

Among the test systems are SK-MEL-5; SNB-19; RXF 393; PC-3; HCT-116; SNB-75; SK-OV-3; CAKI-1; UACC-257; A498; NCI/ADR-RES; Hs-578T; SF-539; HL-60; MDA-MB-231; DU-145; MDA-MB-435; LOX IMVI; SF-268; NCI-H226.
Holding throughout (experiment): growth of human tumour cells (NCI), 48 h

For the compound `c1ccc2c(c1)CCc1[nH]c3c(c1-2)-c1ccccc1CC3`, the GI50 is > 100 µM (inactive) in the experiment with SK-MEL-5; > 100 µM (inactive) in the experiment with SNB-19; 45.3 µM (inactive) in the experiment on RXF 393; 64.1 µM (inactive) with PC-3; 96.8 µM (inactive) with HCT-116; 80.5 µM (inactive) in the experiment on SNB-75. Further, the GI50 was > 100 µM (inactive) with SK-OV-3; 91.6 µM (inactive) with CAKI-1; > 100 µM (inactive) in the experiment with UACC-257; > 100 µM (inactive) in the experiment on A498; 98.6 µM (inactive) in the experiment on NCI/ADR-RES; 36.9 µM (inactive) with Hs-578T. For the same compound, the GI50 in the experiment on SF-539 is > 100 µM (inactive); in the experiment with HL-60, 27.9 µM (inactive); in the experiment on MDA-MB-231 it was 33.2 µM (inactive); in the experiment with DU-145, > 100 µM (inactive); with MDA-MB-435, 74.6 µM (inactive); in the experiment with LOX IMVI, 42.6 µM (inactive). In addition, the GI50 was 78 µM (inactive) in the experiment on SF-268 and 61.8 µM (inactive) with NCI-H226.
With `COc1ccc(/N=c2\ssc(C(=S)Nc3ccc(OC)cc3)c2S)cc1`, the GI50 in the experiment on SK-MEL-5 was > 100 µM (inactive); with SNB-19 it was > 100 µM (inactive); in the experiment on RXF 393 it was > 100 µM (inactive); in the experiment with PC-3, > 100 µM (inactive); with HCT-116, 88.1 µM (inactive); with SNB-75, > 100 µM (inactive). Moreover, the GI50 in the experiment with SK-OV-3, in the experiment on CAKI-1, in the experiment on UACC-257, in the experiment on A498, in the experiment with NCI/ADR-RES and in the experiment on Hs-578T was > 100 µM (inactive) in each case. The GI50 with SF-539 was > 100 µM (inactive); in the experiment with HL-60 it was 36.3 µM (inactive); in the experiment on MDA-MB-231, > 100 µM (inactive); with DU-145, > 100 µM (inactive); in the experiment with MDA-MB-435 it was > 100 µM (inactive); in the experiment with LOX IMVI it was > 100 µM (inactive). Besides, the GI50 in the experiment with SF-268 and with NCI-H226 was > 100 µM (inactive) in each case.
For `CC1=NN(c2nc(N)nc(CSc3cc(Cl)c(C)cc3S(N)(=O)=O)n2)C(C)(C)C1`, the GI50 in the experiment with SK-MEL-5, in the experiment with SNB-19, in the experiment on RXF 393, in the experiment on PC-3, in the experiment on HCT-116 and with SNB-75 was > 10 µM (inactive) each time. The GI50 in the experiment on SK-OV-3, in the experiment with CAKI-1, in the experiment on UACC-257, in the experiment with A498, with NCI/ADR-RES and with Hs-578T was > 10 µM (inactive) in each case. Further, the GI50 in the experiment with SF-539, in the experiment on HL-60, in the experiment with MDA-MB-231, in the experiment with DU-145, with MDA-MB-435 and in the experiment on LOX IMVI was > 10 µM (inactive) throughout. The GI50 with SF-268 and with NCI-H226 was > 10 µM (inactive) each time.
`CCN(CC)CCNc1ccc2nnn3c4ccc([N+](=O)[O-])cc4c(=O)c1c23`: the GI50 is 3.62 µM (inactive) in the experiment with SK-MEL-5; 6.43 µM (inactive) with SNB-19; 4.78 µM (inactive) in the experiment with RXF 393; 5.26 µM (inactive) in the experiment on PC-3; 3.55 µM (inactive) with HCT-116; 4.91 µM (inactive) in the experiment with SNB-75. Besides, the GI50 in the experiment on SK-OV-3 was > 37.6 µM (inactive); in the experiment with CAKI-1, 4.14 µM (inactive); with UACC-257 it was 10 µM (inactive); in the experiment on A498, 6.3 µM (inactive); with NCI/ADR-RES it was 7.16 µM (inactive); in the experiment on Hs-578T it was 14.1 µM (inactive). Moreover, the GI50 was 3.35 µM (inactive) with SF-539; 6.52 µM (inactive) in the experiment with HL-60; 3.94 µM (inactive) in the experiment on MDA-MB-231; 7.69 µM (inactive) with DU-145; > 100 µM (inactive) in the experiment on MDA-MB-435; 4.58 µM (inactive) in the experiment on LOX IMVI. The values for the GI50 with SF-268 and with NCI-H226 were 6.37 µM (inactive) and 3.34 µM (inactive), respectively.
On to `CC1(C)SCc2nc3ccccc3n21`, for which the GI50 in the experiment on SK-MEL-5 was > 100 µM (inactive); in the experiment with SNB-19 it was > 100 µM (inactive); in the experiment with RXF 393 it was > 100 µM (inactive); in the experiment on PC-3, > 100 µM (inactive); in the experiment on HCT-116, > 100 µM (inactive); with SNB-75, 0.0119 µM (active). Besides, the GI50 in the experiment on SK-OV-3, with CAKI-1, in the experiment on UACC-257, in the experiment with A498, with NCI/ADR-RES and in the experiment on Hs-578T was > 100 µM (inactive) throughout. The GI50 in the experiment with SF-539, in the experiment with HL-60, with MDA-MB-231, in the experiment with DU-145, in the experiment on MDA-MB-435 and in the experiment with LOX IMVI was > 100 µM (inactive) throughout. Further, the values for the GI50 in the experiment with SF-268 and in the experiment on NCI-H226 were > 100 µM (inactive) and 89.9 µM (inactive), respectively.
Consider `Cc1cc2ccccc2c[n+]1CC(=O)CC([O-])(C(F)(F)F)C(F)(F)F`, for which the GI50 in the experiment with SK-MEL-5 is 50.7 µM (inactive); in the experiment on SNB-19, > 100 µM (inactive); with RXF 393, 37.3 µM (inactive); with PC-3, > 100 µM (inactive); in the experiment with HCT-116, > 100 µM (inactive); in the experiment with SNB-75, > 100 µM (inactive). For the same compound, the GI50 in the experiment with SK-OV-3 is > 100 µM (inactive); in the experiment on CAKI-1, > 100 µM (inactive); in the experiment with UACC-257, > 100 µM (inactive); in the experiment on A498 it was 36.1 µM (inactive); in the experiment with NCI/ADR-RES it was > 100 µM (inactive); with Hs-578T it was > 100 µM (inactive). The GI50 in the experiment with SF-539, in the experiment on HL-60, in the experiment with MDA-MB-231, in the experiment on DU-145, in the experiment on MDA-MB-435 and with LOX IMVI was > 100 µM (inactive) throughout. Also, the GI50 with SF-268 and in the experiment on NCI-H226 was > 100 µM (inactive) in each case.
Regarding `COc1cc2c(/C=C3/C(=O)N(C)c4ccccc43)c(Cl)[nH]c2cc1C`, the GI50 in the experiment with SK-MEL-5 is 0.185 µM (active); with SNB-19, 0.253 µM (active); with RXF 393 it was 0.746 µM (active); with PC-3, 0.29 µM (active); in the experiment with HCT-116 it was 0.233 µM (active); in the experiment with SNB-75, 0.321 µM (active). Besides, the GI50 with SK-OV-3 is 0.184 µM (active); in the experiment with CAKI-1, 0.509 µM (active); in the experiment with UACC-257, 0.169 µM (active); in the experiment with A498, 3.19 µM (inactive); in the experiment with NCI/ADR-RES it was 0.17 µM (active); with Hs-578T, 0.226 µM (active). For the same compound, the GI50 was 0.0244 µM (active) in the experiment with SF-539; 0.069 µM (active) in the experiment with HL-60; 0.36 µM (active) in the experiment on MDA-MB-231; 0.246 µM (active) in the experiment on DU-145; 0.0277 µM (active) in the experiment with MDA-MB-435; 0.3 µM (active) in the experiment with LOX IMVI. Further, the GI50 in the experiment on SF-268 is 0.207 µM (active); with NCI-H226 it was 0.449 µM (active).
Regarding `O=C(Nc1ccn(C2CC(I)C(COC(c3ccccc3)(c3ccccc3)c3ccccc3)O2)c(=O)n1)c1ccccc1` (stereo not given), the GI50 in the experiment on SK-MEL-5 is 9.53 µM (inactive); with SNB-19 it was 12.9 µM (inactive); in the experiment with RXF 393 it was 8.59 µM (inactive); in the experiment on PC-3, 2.36 µM (inactive); in the experiment on HCT-116 it was 6.35 µM (inactive); in the experiment on SNB-75, 2.43 µM (inactive). Also, the GI50 in the experiment on SK-OV-3 is 15.5 µM (inactive); in the experiment with CAKI-1, 15.6 µM (inactive); with UACC-257 it was 10.8 µM (inactive); with A498, 7.03 µM (inactive); in the experiment on NCI/ADR-RES, 9.75 µM (inactive); in the experiment on Hs-578T it was 3.03 µM (inactive). The GI50 was 12.4 µM (inactive) with SF-539; 5.83 µM (inactive) in the experiment with HL-60; 9.57 µM (inactive) in the experiment with MDA-MB-231; 11.9 µM (inactive) with DU-145; 7.36 µM (inactive) with MDA-MB-435; 8.18 µM (inactive) with LOX IMVI. Moreover, the GI50 in the experiment on SF-268 was 12 µM (inactive); in the experiment on NCI-H226 it was 8.55 µM (inactive).
As to `C/C=C(\C)C(=O)OC1/C=C(\C)CC/C=C(\C)CC2OC(=O)C(C)(OC(C)=O)C12` (stereo not given), the GI50 in the experiment on SK-MEL-5, in the experiment on SNB-19, with RXF 393, in the experiment with PC-3, in the experiment with HCT-116 and in the experiment with SNB-75 was > 100 µM (inactive) each time. The GI50 in the experiment with SK-OV-3, in the experiment with CAKI-1, in the experiment on UACC-257, in the experiment on A498, with NCI/ADR-RES and with Hs-578T was > 100 µM (inactive) in each case. Moreover, the GI50 with SF-539 was > 100 µM (inactive); with HL-60, 59.7 µM (inactive); in the experiment on MDA-MB-231 it was > 100 µM (inactive); in the experiment with DU-145, > 100 µM (inactive); with MDA-MB-435, > 100 µM (inactive); with LOX IMVI it was > 100 µM (inactive). In addition, the GI50 in the experiment on SF-268 and in the experiment on NCI-H226 was > 100 µM (inactive) in each case.
In the case of `CCCCCCCCCC(=O)CC(=O)c1c(O)cc(O)cc1O`, the GI50 in the experiment on SK-MEL-5 was 15.3 µM (inactive); in the experiment on SNB-19, 22.6 µM (inactive); with RXF 393, 11.7 µM (inactive); in the experiment on PC-3, 17.9 µM (inactive); with HCT-116, 24.4 µM (inactive); with SNB-75, 22.2 µM (inactive). Besides, the GI50 with SK-OV-3 was 35 µM (inactive); with CAKI-1, 31.1 µM (inactive); in the experiment on UACC-257, 23.4 µM (inactive); with A498, 22.6 µM (inactive); with NCI/ADR-RES it was 16.6 µM (inactive); in the experiment with Hs-578T it was 18.5 µM (inactive). For the same compound, the GI50 in the experiment on SF-539 was 19.5 µM (inactive); with HL-60, 17.9 µM (inactive); in the experiment with MDA-MB-231, 28.6 µM (inactive); in the experiment on DU-145, 22.4 µM (inactive); with MDA-MB-435, 16.9 µM (inactive); with LOX IMVI it was 17.4 µM (inactive). In addition, the values for the GI50 with SF-268 and in the experiment with NCI-H226 were 18.4 µM (inactive) and 16.2 µM (inactive), respectively.
